Data: patent US10512656B2, “Compositions and methods for the treatment of lysosomal storage disorders and disorders characterized by lysosomal dysfunction” (Baylor College of Medicine, priority 2016, dated 2019)

How the values were obtained:
TFE3 = TFE3 nuclear translocation in HeLa cells; assay type: cell-based, human; settings: HeLa cells transfected with TFE3-3×Flag
Excerpt: (§1) FIG. 23. Pharmacological inhibition of AKT induces nuclear translocation of TFE3 and MITF. HeLa cells were transiently transfected with TFE3-3×Flag (a) and MITF-3×Flag (b) and analyzed by confocal microscopy. Scale bar is 10 μm.

MITF = MITF nuclear translocation in HeLa cells; assay type: cell-based, human; settings: HeLa cells transfected with MITF-3×Flag
Excerpt: as §1

TFEB [1] = assay: Serum re-stimulation of serum-starved Tsc2-/- cells, TFEB localization; assay type: cell-based, mouse; settings: preincubation with MK2206
Protocol: FIG. 15. Serum stimulation modulates subcellular localization of TFEB by regulating Akt activity. (a) WT and Tsc2^−/− cells were serum starved (16 h), treated with MK2206 in the last two hr of starvation where indicated, and stimulated with dialyzed serum for the last 30 min when indicated. Cell lysates were probed with antibodies as indicated. (b) WT and Tsc2^−/− cells were transiently transfected with TFEB-Flag and treated as in (a) and analyzed by immunofluorescence confocal microscopy. Scale bar is 60 μm.

mTORC1 [2] = biological target: T1, mTORC1 (Homo sapiens, UniProt P42345); assay: Immunoblot of mTORC1 substrates in HeLa cells; assay type: cell-based; settings: trehalose 24 h or 48 h
T1 construct: endogenous in cells; host or cells: HeLa
Protocol: FIG. 8. […] HeLa cells were treated with trehalose for 24 h or 48 h, or with rapamycin (600 nM, 16 h) or Torin1 (300 nM, 2 h) as controls for mTORC1 inhibition. […] GAPDH was used as a loading control.
(§2) Brain tissue and cultured cells were collected and lysed in RIPA buffer (50 mM Tris-HCl, ph 7.4, 1% NP40, 0.5% Na-deoxycholate, 0.1% SDS, 150 mM NaCl, 2 mM EDTA and 50 mM NaF) including a cocktail of protease (Roche) and phosphatase (SIGMA) inhibitors. Protein concentrations were measured with the bicinchoninic acid protein assay kit (Pierce, Rockford, Ill.), using bovine serum albumin as standard. Lysates were separated via SDS-polyacrylamide gel electrophoresis (PAGE) and then transferred to nitrocellulose membranes. Blots were incubated in blocking buffer (5%, w/v, dried skimmed milk in Tris-buffered saline, pH 7.4 and 0.2% Tween 20, TBST) followed by overnight incubation with appropriate antibodies diluted in blocking buffer (5% dry milk). Western blot images were acquired by LAS 4000 (GE Healthcare) and quantified using ImageJ. Images have been cropped for presentation.

Cln3^Δex7-8 mice [3] = assay: TEM counting of fingerprint profiles; assay type: in vivo, mouse
Protocol: Mice were anaesthetized and perfused intracardially with saline solution followed by 2% formaldehyde+2.5% glutaraldehyde in 0.1M sodium cacodylate buffer (pH 7.4). Brains were removed and small pieces of cerebellum and cortex were collected, and further postfixed in 2% formaldehyde|o2.5% glutaraldehyde, 0.1M sodium cacodylate buffer (pH 7.4) for 24 h. One-hundred micrometer coronal sections were cut with a vibratome and fixed in 1% OsO4 in 0.1M cacodylate for 1 h, stained with uranyl acetate dehydrated and embedded in Eponate 812. Ultrathin sections at 60 nm were obtained on an RMC MT6000 ultramicrotome and examined with a Hitachi H7500 transmission electron microscope. Images were captured using a Gatan US1000 high-resolution digital camera and Digital Micrograph software (v1.82.366).

Cln3^Δex7-8 mice [4] = assay: Wet brain weight; assay type: in vivo, mouse; settings: 12-month-old Cln3^Δex7-8 mice, trehalose treatment; untreated 0.355±0.024 g, WT 0.516±0.021 g
Protocol: Cln3^Δex7-8 mice (stock no. 004685; Cln3^tm1.1Mem/J; CD-1 background)^32 were obtained from the Jackson Laboratory. Control (CD-1) and Cln3^Δex7-8 mice were housed 3-4 per cage in a room with a 12-h light/12-h dark cycle. Food and water were provided ad libitum. All mice used in this study were analyzed at 8 and 12 months of age and were littermates produced by crossing heterozygous Cln3^Δex7-8 mice. Only males were used for this analysis. Investigators were blinded when analyzing the data, and no randomization was necessary. No data were excluded from this study.
Trehalose (Swanson) was dissolved in drinking water to a final concentration of 2% and changed twice a week. Trehalose-containing water was given to Cln3^Δex7-8 and WT mice by spontaneous oral administration starting at 21 days of age and continuing until the day the mice died naturally (life span assessment) or were sacrificed for other studies.

ERK = ERK inhibition check; assay type: cell-based
Protocol: as §2

TFEB [5] = assay: TFEB nuclear translocation in HeLa cells with WT or constitutively active mTOR; assay type: cell-based, human; settings: cells transfected with WT mTOR or mTOR^E2419K, trehalose 100 mM 24 h
Protocol: (b) Quantification of TFEB subcellular localization (C, cytoplasmic; N, nuclear) after 24 h of trehalose treatment (Tre) or in untreated cells (UT). Scale bars in a, b is 40 μm. (c) Immunoblot analyses show expression levels of substrates downstream of mTORC1. Wild-type (WT) and TSC2 null MEF cells were treated with trehalose (Tre; 100 mM) for 24 h or left untreated. As controls, cells were treated with Torin 1 (300 nM) or rapamycin (300 nM) for 2 h before extracting the lysates. Phospho- and total S6K1 (P-S6K1 and T-S6K1), phospho- and total S6 (P-S6 and T-S6) and phospho- and total 4E-BP1 (P-4E-BP1 and T-4E-BP1) were detected as readouts of mTORC1 activity. […] (f) HeLa cells co-transfected with TFEB-3×FLAG and mTOR or (g) TFEB-3×FLAG and constitutively active mTOR (CA-mTOR, […]) constructs were treated with trehalose (100 mM for 24 h) or left untreated before immunofluorescent labelling of TFEB (red) and mTOR (green) with FLAG and mTOR antibodies, respectively. Scale bar, 10 μm (d-g). Data represent means±s.e.m.
For immunofluorescence assay, cells were grown on coverslips in 24-well plates. After the treatment, cells were washed with PBS and fixed with methanol for 10 min. Cells were then blocked with blocking reagent (0.1% saponin, 10% bovine serum in PBS) for 1 h and incubated with appropriate primary antibody(s) (1:100) for 3 h at room temperature. […]

mTORC1 [6] = biological target: T2, mTORC1 (Mus musculus, UniProt Q9JLN9); assay: Immunoblot of mTORC1 substrates in WT and Tsc2-/- MEFs; assay type: cell-based; settings: Tsc2-/- and control MEFs, trehalose 100 mM 24 h
T2 construct: 100 mM) for 24 h or left untreated; endogenous in cells; host or cells: wild-type and Tsc2-/- mouse embryonic fibroblasts
Protocol: (b) Quantification of TFEB subcellular localization (C, cytoplasmic; N, nuclear) after 24 h of trehalose treatment (Tre) or in untreated cells (UT). Scale bars in a, b is 40 μm. (c) Immunoblot analyses show expression levels of substrates downstream of mTORC1. Wild-type (WT) and TSC2 null MEF cells were treated with trehalose (Tre; 100 mM) for 24 h or left untreated. As controls, cells were treated with Torin 1 (300 nM) or rapamycin (300 nM) for 2 h before extracting the lysates. Phospho- and total S6K1 (P-S6K1 and T-S6K1), phospho- and total S6 (P-S6 and T-S6) and phospho- and total 4E-BP1 (P-4E-BP1 and T-4E-BP1) were detected as readouts of mTORC1 activity. […]
Brain tissue and cultured cells were collected and lysed in RIPA buffer (50 mM Tris-HCl, ph 7.4, 1% NP40, 0.5% Na-deoxycholate, 0.1% SDS, 150 mM NaCl, 2 mM EDTA and 50 mM NaF) including a cocktail of protease (Roche) and phosphatase (SIGMA) inhibitors. Protein concentrations were measured with the bicinchoninic acid protein assay kit (Pierce, Rockford, Ill.), using bovine serum albumin as standard. […] Western blot images were acquired by LAS 4000 (GE Healthcare) and quantified using ImageJ. […]

Row | SMILES | TFE3 nuclear translocation (TFE3) | MITF nuclear translocation (MITF) | TFEB nucleus-to-cytosol translocation on serum re-stimulation (TFEB [1]) | phosphorylation state of mTORC1 substrates (mTORC1 [2]) | number of fingerprint profiles (Cln3^Δex7-8 mice [3]; Purkinje cells, P=0.047) | number of fingerprint profiles (Cln3^Δex7-8 mice [3]; cortical neurons, P=0.017) | wet brain weight (Cln3^Δex7-8 mice [4]) | ERK inhibition (ERK) | TFEB nuclear translocation (TFEB [5]) | mTORC1 signalling (mTORC1 [6])
1 | Cl.NC1(c2ccc(-c3nc4ccn5c(=O)[nH]nc5c4cc3-c3ccccc3)cc2)CCC1 [MK2206, 8-[4-(1-aminocyclobutyl)phenyl]-9-phenyl-1,2,4-triazolo[3,4-f][1,6]naphthyridin-3(2H)-one] | promoted nuclear translocation of these two factors | promoted nuclear translocation of these two factors | prevented | – | – | – | – | – | – | –
2 | OC[C@H]1O[C@H](O[C@H]2O[C@H](CO)[C@@H](O)[C@H](O)[C@H]2O)[C@H](O)[C@@H](O)[C@@H]1O [trehalose, a-D-glucopyranosyl a-D-glucopyranoside] | – | – | – | no changes in their phosphorylation state | significantly reduced the number of fingerprint profiles | significantly reduced the number of fingerprint profiles | 0.473 ± 0.028 g | does not inhibit ERK | induces nuclear translocation of TFEB | does not alter mTORC1 signalling
